These results are taken from patent publication US20250019387A1 (Frontier Medicines Corporation, priority 0001, published 2025).

Where two headings read alike, the source gives them in different places.

This test has as its target KRAS G12C and cRAF (Ras-binding domain) interaction (Homo sapiens (Human), UniProt P01116, C118S/C51S/C80L/G12C). The experiment in a line: Inhibition of KRAS G12C and cRAF binding (AlphaScreen). Here is the method: Compounds were diluted in 100% DMSO and each compound concentration was spotted at 200 nl/well onto low volume, white 384 well plates. […] Plates were incubated for 19-20 hours. A mixture of RBD and the AlphaScreen streptavidin donor and glutathione acceptor beads diluted in 25 mM Hepes, pH 7.4, 150 mM NaCl, 5 mM MgCl2, 0.01% TritonX-100 and 2% DMSO was then added at 10 ul/well and incubated for 60-90 minutes before the samples were read for emission at 570 nm after excitation of the donor beads at 680 nm. All incubations were performed at room temperature. […] IC50s were determined using nonlinear regression fit of [inhibitor]vs. response (4 parameters). […]
(Bead proximity is the source of the signal in Alpha formats.)

Setting [1] is: GMPPNP-loaded KRAS G12C, 19-20 hours incubation with compound, read-out: IC50 (Inhibition of KRAS G12C and cRAF Binding).
Setting [2] is: additional exemplary compounds, KRAS G12C and cRAF binding, read-out: RAF1 RBD IC50.

Chain of KRAS G12C and cRAF (Ras-binding domain) interaction (P01116 other isoform, or with tags, fused parts or gaps G12C/C51S/C80L/C118S): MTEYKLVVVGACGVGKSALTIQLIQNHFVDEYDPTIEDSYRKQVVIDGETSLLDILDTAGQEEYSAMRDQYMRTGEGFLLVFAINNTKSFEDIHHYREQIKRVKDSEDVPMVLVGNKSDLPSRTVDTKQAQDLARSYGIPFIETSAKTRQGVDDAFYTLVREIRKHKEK

As usually defined, the IC50 is the point on the concentration scale where inhibition reaches its midpoint. Take `Cc1nccc(/C=C/C(=O)N2CC[C@@H](N(C)c3nc(OC[C@@]45CCCN4C[C@H](F)C5)nc4c(F)c(-c5cccc6cccc(Cl)c56)ncc34)C2)n1` [Example 72, (E)-1-((R)-3-((7-(8-chloronaphthalen-1-yl)-8-fluoro-2-(((2R,7aS)-2-fluorotetrahydro-1H-pyrrolizin-7a(5H)-yl)methoxy)pyrido[4,3-d]pyrimidin-4-yl)(methyl)amino)pyrrolidin-1-yl)-3-(2-methylpyrimidin-4-yl)prop-2-en-1-one]: under setting [1], the IC50 was 0.1 to 0.5 µM.

`CCc1c(F)ccc2cccc(-c3ncc4c(N(C)[C@@H]5CCN(C(=O)/C=C/[C@H]6CCN6C)C5)nc(OC[C@@]56CCCN5C[C@H](F)C6)nc4c3F)c12` [Example 196, (E)-1-((R)-3-((7-(8-ethyl-7-fluoronaphthalen-1-yl)-8-fluoro-2-(((2R,7aS)-2-fluorotetrahydro-1H-pyrrolizin-7a(5H)-yl)methoxy)pyrido[4,3-d]pyrimidin-4-yl)(methyl)amino)pyrrolidin-1-yl)-3-((R)-1-methylazetidin-2-yl)prop-2-en-1-one]: the IC50 under setting [1] is 0.01 to 0.1 µM. Still for that read-out and setting: next, `C=CC(=O)N1CC[C@@H](N(C)c2nc(OCC34CCCN3CCC4)nc3c(F)c(-c4cccc5c(F)cc(F)cc45)ncc23)C1` [Example 269, (R)-1-(3-((7-(5,7-difluoronaphthalen-1-yl)-8-fluoro-2-((hexahydro-1H-pyrrolizin-7a-yl)methoxy)pyrido[4,3-d]pyrimidin-4-yl)(methyl)amino)pyrrolidin-1-yl)prop-2-en-1-one]: 0.1 to 0.5 µM; `C=CC(=O)N1CC[C@@H](N(CCC#N)c2nc(OC[C@@]34CCCN3C[C@H](F)C4)nc3c(F)c(-c4cccc5cccc(Cl)c45)ncc23)C1` [Example 264, 3-(((R)-1-acryloylpyrrolidin-3-yl)(7-(8-chloronaphthalen-1-yl)-8-fluoro-2-(((2R,7aS)-2-fluorohexahydro-1H-pyrrolizin-7a-yl)methoxy)pyrido[4,3-d]pyrimidin-4-yl)amino)propanenitrile]: 0.1 to 0.5 µM; `C=CC(=O)N1CC[C@@H](N(C)c2nc(OC[C@]34CCCN3C[C@@H](F)C4)nc3c(F)c(-c4cccc5ccc(F)c(Cl)c45)ncc23)C1` [Example 151, 1-((R)-3-((7-(8-chloro-7-fluoronaphthalen-1-yl)-8-fluoro-2-(((2S,7aR)-2-fluorohexahydro-1H-pyrrolizin-7a-yl)methoxy)pyrido[4,3-d]pyrimidin-4-yl)(methyl)amino)pyrrolidin-1-yl)prop-2-en-1-one]: greater than 0.5 µM. As for `CN(c1nc(OCC23CCCN2CCC3)nc2c(F)c(-c3cccc4cccc(Cl)c34)ncc12)[C@@H]1CCN(C(=O)/C=C/c2cnccn2)C1`, the half-inhibitory concentration (IC50) under setting [2] was greater than 0.5 µM. Still for that read-out and setting: next, `C=CS(=O)(=O)CCN(C)c1nc(OC[C@@H]2CCCN2C)nc2c1CCN(c1cccc3ccc(F)c(Cl)c13)C2`: 0.1 to 0.5 µM. Turning to `C=CC(=O)N1C[C@H](F)[C@@H](N(C)c2nc(OC[C@@]34CCCN3C[C@H](F)C4)nc3c(F)c(-c4cccc5cccc(Cl)c45)ncc23)C1` [Example 73, 1-((3S,4S)-3-((7-(8-chloronaphthalen-1-yl)-8-fluoro-2-(((2R,7aS)-2-fluorohexahydro-1H-pyrrolizin-7a-yl)methoxy)pyrido[4,3-d]pyrimidin-4-yl)(methyl)amino)-4-fluoropyrrolidin-1-yl)prop-2-en-1-one], under setting [1], the IC50 is 0.01 to 0.1 µM.

Consider `CN(c1nc(OC[C@@]23CCCN2C[C@H](F)C3)nc2c(F)c(-c3cccc4cccc(Cl)c34)ncc12)[C@@H]1CCN(C(=O)/C=C/c2nc(C3(C)COC3)no2)C1` [Example 95, (E)-1-((R)-3-((7-(8-chloronaphthalen-1-yl)-8-fluoro-2-(((2R,7aS)-2-fluorotetrahydro-1H-pyrrolizin-7a(5H)-yl)methoxy)pyrido[4,3-d]pyrimidin-4-yl)(methyl)amino)pyrrolidin-1-yl)-3-(3-(3-methyloxetan-3-yl)-1,2,4-oxadiazol-5-yl)prop-2-en-1-one], for which, under setting [1], the IC50 was less than 0.01 µM.
